Results taken from PubChem BioAssay (NCI).
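All cell lines were grown in 96-well plates and treated with compound for 48 hours. At the TGI there is no net growth.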

Legend:
Assay in all cases: NCI tumour cell line growth inhibition, 48 h
HOP-62 NSCLC = test system: HOP-62 NSCLC
DMS 273 small cell lung = test system: DMS 273 small cell lung
NCI-H226 lung = test system: NCI-H226 lung
LOX IMVI melanoma = test system: LOX IMVI melanoma
CAKI-1 renal = test system: CAKI-1 renal
NCI-H522 lung = test system: NCI-H522 lung
KM20L2 colon = test system: KM20L2 colon
KM12 colon = test system: KM12 colon
CCRF-CEM leukemia = test system: CCRF-CEM leukemia
786-0 renal = test system: 786-0 renal
U251 CNS = test system: U251 CNS
LXFL 529 NSCLC = test system: LXFL 529 NSCLC
MALME-3M melanoma = test system: MALME-3M melanoma
SK-MEL-2 melanoma = test system: SK-MEL-2 melanoma
UO-31 renal = test system: UO-31 renal
SF-539 CNS = test system: SF-539 CNS
HCT-116 colon = test system: HCT-116 colon
MOLT-4 leukemia = test system: MOLT-4 leukemia
HT29 colon = test system: HT29 colon
K-562 leukemia = test system: K-562 leukemia
SNB-78 CNS = test system: SNB-78 CNS
IGROV1 ovarian = test system: IGROV1 ovarian
UACC-62 melanoma = test system: UACC-62 melanoma
OVCAR-3 ovarian = test system: OVCAR-3 ovarian
DLD-1 colon = test system: DLD-1 colon
RXF-631 renal = test system: RXF-631 renal
COLO 205 colon = test system: COLO 205 colon
SF-295 CNS = test system: SF-295 CNS
SK-MEL-5 melanoma = test system: SK-MEL-5 melanoma
HOP-92 NSCLC = test system: HOP-92 NSCLC
A549 NSCLC = test system: A549 NSCLC
SNB-75 CNS = test system: SNB-75 CNS
NCI-H23 lung = test system: NCI-H23 lung
SNB-19 CNS = test system: SNB-19 CNS
HOP-18 NSCLC = test system: HOP-18 NSCLC
SF-268 CNS = test system: SF-268 CNS
M19-MEL melanoma = test system: M19-MEL melanoma
TK-10 renal = test system: TK-10 renal
EKVX NSCLC = test system: EKVX NSCLC
SN12C renal = test system: SN12C renal
M14 melanoma = test system: M14 melanoma
RXF 393 renal = test system: RXF 393 renal
HL-60(TB) leukemia = test system: HL-60(TB) leukemia
OVCAR-4 ovarian = test system: OVCAR-4 ovarian
UACC-257 melanoma = test system: UACC-257 melanoma
OVCAR-8 ovarian = test system: OVCAR-8 ovarian
OVCAR-5 ovarian = test system: OVCAR-5 ovarian
SR leukemia = test system: SR leukemia
SW-620 colon = test system: SW-620 colon
SK-OV-3 ovarian = test system: SK-OV-3 ovarian
DMS 114 small cell lung = test system: DMS 114 small cell lung
XF 498 CNS = test system: XF 498 CNS
HCT-15 colon = test system: HCT-15 colon
NCI-H460 lung = test system: NCI-H460 lung
RPMI-8226 leukemia = test system: RPMI-8226 leukemia
A498 renal = test system: A498 renal
HCC-2998 colon = test system: HCC-2998 colon
SK-MEL-28 melanoma = test system: SK-MEL-28 melanoma
ACHN renal = test system: ACHN renal

Structure (SMILES): CC(C)=CCCC(C)[C@H]1CC(O)C2(C)C3=CCC4C(C)(C)[C@@H](O)CC[C@]4(C)C3=CC[C@]12C (stereo not given in full)
- TGI (HOP-62 NSCLC): 18.9 µM
- TGI (DMS 273 small cell lung): 3.74 µM
- TGI (NCI-H226 lung): 15.1 µM
- TGI (LOX IMVI melanoma): 1.07 µM
- TGI (CAKI-1 renal): 24.4 µM
- TGI (NCI-H522 lung): 16.2 µM
- TGI (KM20L2 colon): 93.6 µM
- TGI (KM12 colon): > 100 µM
- TGI (CCRF-CEM leukemia): 25.8 µM
- TGI (786-0 renal): 3.52 µM
- TGI (U251 CNS): 6.54 µM
- TGI (LXFL 529 NSCLC): 5.09 µM
- TGI (MALME-3M melanoma): 34.2 µM
- TGI (SK-MEL-2 melanoma): 79.5 µM
- TGI (UO-31 renal): 41.6 µM
- TGI (SF-539 CNS): 6.58 µM
- TGI (HCT-116 colon): 6.22 µM
- TGI (MOLT-4 leukemia): 42.4 µM
- TGI (HT29 colon): 14.6 µM
- TGI (K-562 leukemia): 26.6 µM
- TGI (SNB-78 CNS): 32.4 µM
- TGI (IGROV1 ovarian): 48.7 µM
- TGI (UACC-62 melanoma): 15.1 µM
- TGI (OVCAR-3 ovarian): 13.1 µM
- TGI (DLD-1 colon): 27.1 µM
- TGI (RXF-631 renal): 34 µM
- TGI (COLO 205 colon): 20.7 µM
- TGI (SF-295 CNS): 5.91 µM
- TGI (SK-MEL-5 melanoma): > 100 µM
- TGI (HOP-92 NSCLC): 9.53 µM
- TGI (A549 NSCLC): 10.6 µM
- TGI (SNB-75 CNS): 21.3 µM
- TGI (NCI-H23 lung): 14.9 µM
- TGI (SNB-19 CNS): 30.2 µM
- TGI (HOP-18 NSCLC): 31.6 µM
- TGI (SF-268 CNS): 28.3 µM
- TGI (M19-MEL melanoma): 13.8 µM
- TGI (TK-10 renal): 50.1 µM
- TGI (EKVX NSCLC): > 100 µM
- TGI (SN12C renal): 12.3 µM
- TGI (M14 melanoma): 18.5 µM
- TGI (RXF 393 renal): 7.59 µM
- TGI (HL-60(TB) leukemia): 35 µM
- TGI (OVCAR-4 ovarian): 6.48 µM
- TGI (UACC-257 melanoma): > 100 µM
- TGI (OVCAR-8 ovarian): 3.79 µM
- TGI (OVCAR-5 ovarian): > 100 µM
- TGI (SR leukemia): 44.2 µM
- TGI (SW-620 colon): 14.7 µM
- TGI (SK-OV-3 ovarian): 24.8 µM
- TGI (DMS 114 small cell lung): 33.5 µM
- TGI (XF 498 CNS): 25.1 µM
- TGI (HCT-15 colon): 45.7 µM
- TGI (NCI-H460 lung): 4.92 µM
- TGI (RPMI-8226 leukemia): 34.4 µM
- TGI (A498 renal): 16.3 µM

Structure (SMILES): CCOC(=O)C1C(c2ccccc2)=C(c2ccccc2)C(c2ccccc2)=C1c1ccccc1
- TGI (HOP-62 NSCLC): 33.3 µM
- TGI (DMS 273 small cell lung): > 100 µM
- TGI (HCC-2998 colon): > 100 µM
- TGI (NCI-H226 lung): > 60.1 µM
- TGI (LOX IMVI melanoma): > 100 µM
- TGI (CAKI-1 renal): > 100 µM
- TGI (NCI-H522 lung): 98.1 µM
- TGI (KM20L2 colon): > 100 µM
- TGI (KM12 colon): > 100 µM
- TGI (CCRF-CEM leukemia): > 100 µM
- TGI (786-0 renal): 55.8 µM
- TGI (U251 CNS): 55.7 µM
- TGI (LXFL 529 NSCLC): > 100 µM
- TGI (MALME-3M melanoma): > 91.7 µM
- TGI (SK-MEL-2 melanoma): > 82.3 µM
- TGI (UO-31 renal): > 93.7 µM
- TGI (SF-539 CNS): 91 µM
- TGI (SK-MEL-28 melanoma): > 100 µM
- TGI (HCT-116 colon): > 76.6 µM
- TGI (MOLT-4 leukemia): > 100 µM
- TGI (HT29 colon): > 100 µM
- TGI (K-562 leukemia): > 100 µM
- TGI (SNB-78 CNS): > 91.6 µM
- TGI (IGROV1 ovarian): > 70.2 µM
- TGI (UACC-62 melanoma): 60.9 µM
- TGI (OVCAR-3 ovarian): 68.7 µM
- TGI (ACHN renal): > 82.2 µM
- TGI (DLD-1 colon): > 100 µM
- TGI (RXF-631 renal): > 100 µM
- TGI (COLO 205 colon): > 100 µM
- TGI (SF-295 CNS): 69.8 µM
- TGI (SK-MEL-5 melanoma): > 100 µM
- TGI (HOP-92 NSCLC): 50.7 µM
- TGI (A549 NSCLC): 97.4 µM
- TGI (SNB-75 CNS): 32.1 µM
- TGI (NCI-H23 lung): > 100 µM
- TGI (SNB-19 CNS): 40.3 µM
- TGI (HOP-18 NSCLC): 82.4 µM
- TGI (SF-268 CNS): > 100 µM
- TGI (M19-MEL melanoma): > 100 µM
- TGI (TK-10 renal): 57.4 µM
- TGI (EKVX NSCLC): > 100 µM
- TGI (SN12C renal): > 83.6 µM
- TGI (M14 melanoma): > 100 µM
- TGI (RXF 393 renal): 40.4 µM
- TGI (HL-60(TB) leukemia): > 100 µM
- TGI (OVCAR-4 ovarian): > 100 µM
- TGI (UACC-257 melanoma): > 100 µM
- TGI (OVCAR-8 ovarian): > 72.7 µM
- TGI (OVCAR-5 ovarian): > 100 µM
- TGI (SR leukemia): > 100 µM
- TGI (SW-620 colon): > 100 µM
- TGI (SK-OV-3 ovarian): 49 µM
- TGI (DMS 114 small cell lung): > 100 µM
- TGI (XF 498 CNS): > 56.8 µM
- TGI (HCT-15 colon): > 100 µM
- TGI (NCI-H460 lung): > 100 µM
- TGI (RPMI-8226 leukemia): > 100 µM
- TGI (A498 renal): 57.1 µM

Structure (SMILES): COc1ccc(C(c2ccc(C(C)C)cc(OC)c2=O)c2ccc(C(C)C)cc(OC)c2=O)cc1
- TGI (HOP-62 NSCLC): 35.5 µM
- TGI (DMS 273 small cell lung): 28 µM
- TGI (NCI-H226 lung): 32.3 µM
- TGI (LOX IMVI melanoma): 31 µM
- TGI (CAKI-1 renal): 33.3 µM
- TGI (NCI-H522 lung): 27.8 µM
- TGI (KM20L2 colon): 27 µM
- TGI (KM12 colon): 26.4 µM
- TGI (CCRF-CEM leukemia): 38.5 µM
- TGI (786-0 renal): 30.5 µM
- TGI (U251 CNS): 26.6 µM
- TGI (LXFL 529 NSCLC): 28.1 µM
- TGI (MALME-3M melanoma): 30.6 µM
- TGI (SK-MEL-2 melanoma): 29.3 µM
- TGI (UO-31 renal): 27.3 µM
- TGI (SF-539 CNS): 30.9 µM
- TGI (HCT-116 colon): 23.1 µM
- TGI (MOLT-4 leukemia): 31.3 µM
- TGI (HT29 colon): 22.7 µM
- TGI (K-562 leukemia): 35.9 µM
- TGI (SNB-78 CNS): 27.3 µM
- TGI (UACC-62 melanoma): 28.1 µM
- TGI (OVCAR-3 ovarian): 26 µM
- TGI (DLD-1 colon): 19.6 µM
- TGI (RXF-631 renal): 34.8 µM
- TGI (COLO 205 colon): 31.1 µM
- TGI (SF-295 CNS): 29.7 µM
- TGI (SK-MEL-5 melanoma): 27.4 µM
- TGI (HOP-92 NSCLC): 27.1 µM
- TGI (A549 NSCLC): 24.6 µM
- TGI (SNB-75 CNS): 34 µM
- TGI (NCI-H23 lung): 30.8 µM
- TGI (SNB-19 CNS): 29.3 µM
- TGI (HOP-18 NSCLC): 40.1 µM
- TGI (SF-268 CNS): 26.5 µM
- TGI (M19-MEL melanoma): 27.1 µM
- TGI (TK-10 renal): 34.2 µM
- TGI (EKVX NSCLC): 26.6 µM
- TGI (SN12C renal): 30.3 µM
- TGI (M14 melanoma): 28 µM
- TGI (RXF 393 renal): 15 µM
- TGI (HL-60(TB) leukemia): 41.9 µM
- TGI (OVCAR-4 ovarian): 24.9 µM
- TGI (UACC-257 melanoma): 29 µM
- TGI (OVCAR-8 ovarian): 32.5 µM
- TGI (OVCAR-5 ovarian): 34.3 µM
- TGI (SR leukemia): 38.2 µM
- TGI (SW-620 colon): 28.8 µM
- TGI (SK-OV-3 ovarian): 32.3 µM
- TGI (DMS 114 small cell lung): 24.7 µM
- TGI (XF 498 CNS): 34.7 µM
- TGI (HCT-15 colon): 25.3 µM
- TGI (NCI-H460 lung): 30 µM
- TGI (RPMI-8226 leukemia): 25.6 µM
- TGI (A498 renal): 31.7 µM
